Experiments:
HeLa = experiment: Cytotoxicity against human HeLa cells assessed as reduction in cell viability incubated for 24 hrs by MTT assay
CWR22R = experiment: Cytotoxicity against human 22Rv1 cells assessed as reduction in cell viability incubated for 24 hrs by MTT assay; conditions: 22Rv1, 24 h
[1] = target: T1, Heat shock protein 75 kDa, mitochondrial (Homo sapiens, UniProt Q12931)
T1 sequence (Q12931 whole entry): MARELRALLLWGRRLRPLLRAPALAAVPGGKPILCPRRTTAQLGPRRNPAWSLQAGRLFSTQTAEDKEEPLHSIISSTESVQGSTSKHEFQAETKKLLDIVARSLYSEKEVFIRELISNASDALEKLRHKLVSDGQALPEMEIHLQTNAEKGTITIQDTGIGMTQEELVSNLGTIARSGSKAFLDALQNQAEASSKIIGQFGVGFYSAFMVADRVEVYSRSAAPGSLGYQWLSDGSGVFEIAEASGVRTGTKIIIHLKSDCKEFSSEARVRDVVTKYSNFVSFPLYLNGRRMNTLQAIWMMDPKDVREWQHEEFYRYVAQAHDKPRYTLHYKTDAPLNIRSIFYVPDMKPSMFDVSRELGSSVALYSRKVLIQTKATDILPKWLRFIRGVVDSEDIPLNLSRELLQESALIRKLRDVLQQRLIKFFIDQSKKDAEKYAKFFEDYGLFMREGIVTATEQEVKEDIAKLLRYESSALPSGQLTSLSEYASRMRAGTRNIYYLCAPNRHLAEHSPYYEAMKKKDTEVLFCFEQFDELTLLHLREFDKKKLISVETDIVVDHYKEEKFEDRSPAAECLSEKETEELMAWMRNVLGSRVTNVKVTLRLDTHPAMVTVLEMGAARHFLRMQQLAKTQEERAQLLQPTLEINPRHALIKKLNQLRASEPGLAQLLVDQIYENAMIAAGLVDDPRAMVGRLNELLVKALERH

[2] = target: T1, Heat shock protein 75 kDa, mitochondrial; experiment: Binding affinity to TRAP1 (unknown origin) assessed as dissociation constant incubated for 15 mins by MST analysis
[3] = target: Heat shock protein 75 kDa, mitochondrial (Homo sapiens, UniProt Q12931, F353A/F531A)
[4] = target: T1, Heat shock protein 75 kDa, mitochondrial; remark: listed apart in the source
Description: Binding affinity to N-terminal 6Hits-tagged/TEV-fused human wildtype TRAP1 extracted from Escherichia coli BL21 (DE3) cells assessed as dissociation constant incubated for 2 hrs by fluorescence polarization assay

[5] = target: T1, Heat shock protein 75 kDa, mitochondrial; experiment: Binding affinity to TRAP1 (unknown origin) assessed as dissociation constant by MST analysis

Heat shock protein 75 kDa, mitochondrial (Homo sapiens, UniProt Q12931, F353A/F531A), sequence (Q12931 60-704 F353A/F531A limits assumed): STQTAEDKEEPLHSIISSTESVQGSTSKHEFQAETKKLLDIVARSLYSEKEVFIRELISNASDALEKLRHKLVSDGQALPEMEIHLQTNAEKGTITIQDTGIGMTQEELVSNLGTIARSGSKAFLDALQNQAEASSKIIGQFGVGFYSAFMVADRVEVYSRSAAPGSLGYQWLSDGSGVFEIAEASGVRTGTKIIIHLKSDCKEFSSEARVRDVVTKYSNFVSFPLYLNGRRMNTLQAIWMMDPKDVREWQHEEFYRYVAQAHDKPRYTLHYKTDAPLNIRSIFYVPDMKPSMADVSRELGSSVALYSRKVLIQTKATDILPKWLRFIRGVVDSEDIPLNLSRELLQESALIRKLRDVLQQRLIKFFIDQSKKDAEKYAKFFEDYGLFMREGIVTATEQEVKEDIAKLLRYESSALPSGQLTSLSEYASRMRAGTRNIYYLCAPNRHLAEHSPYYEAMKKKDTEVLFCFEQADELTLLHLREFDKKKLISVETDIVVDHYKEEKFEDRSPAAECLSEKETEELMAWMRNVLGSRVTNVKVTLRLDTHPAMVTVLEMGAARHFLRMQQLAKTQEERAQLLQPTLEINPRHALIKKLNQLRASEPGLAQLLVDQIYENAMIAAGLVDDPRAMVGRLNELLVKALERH

O=C(CCCCCCCCC[P+](c1ccccc1)(c1ccccc1)c1ccccc1)Oc1ccc(-c2cc(=S)ss2)cc1
IC50 (HeLa): > 20 µM
IC50 (CWR22R): > 20000 nM
IC50 [1]: 8.94 µM

COc1cc(C)c(CCCCCCCCCC[P+](c2ccccc2)(c2ccccc2)c2ccccc2)cc1OC
IC50 (HeLa): 3.21 µM
IC50 (CWR22R): 502 nM
IC50 [1]: 3.8 µM

O=C(C/C(=C/c1ccccc1)C[P+](c1ccccc1)(c1ccccc1)c1ccccc1)C/C(=C\c1ccccc1)C[P+](c1ccccc1)(c1ccccc1)c1ccccc1
IC50 (HeLa): > 20 µM
IC50 (CWR22R): 17400 nM
IC50 [1]: > 20 µM

Cc1c(C)c2c(c(C)c1O)CCC(C)(CCCCCCCCCC[P+](c1ccccc1)(c1ccccc1)c1ccccc1)O2 (stereo not given)
IC50 (HeLa): 1.45 µM
IC50 (CWR22R): 183 nM
IC50 [1]: 8.42 µM

COc1cc(COC(=O)CCCCC[P+](c2ccccc2)(c2ccccc2)c2ccccc2)c(OC)c2c1OCO2
IC50 (HeLa): > 20 µM
IC50 (CWR22R): 18300 nM
IC50 [1]: > 20 µM

c1ccc([P+](Cc2c3ccccc3c(C[P+](c3ccccc3)(c3ccccc3)c3ccccc3)c3ccccc23)(c2ccccc2)c2ccccc2)cc1
IC50 (HeLa): > 20 µM
IC50 (CWR22R): > 20000 nM
IC50 [1]: 9.96 µM

Cc1c(C)c2c(c(C)c1O)CCC(C)(CC[P+](c1ccccc1)(c1ccccc1)c1ccccc1)O2 (stereo not given)
IC50 (HeLa): > 20 µM
IC50 (CWR22R): 17400 nM
IC50 [1]: > 20 µM

O=C(c1ccccc1)C(O)(CCC[P+](c1ccccc1)(c1ccccc1)c1ccccc1)c1ccccc1 (stereo not given)
IC50 (HeLa): 17.6 µM
IC50 (CWR22R): 3490 nM
IC50 [1]: > 20 µM

CN(C)CCOc1ccc(/C(=C(/CCCCCCCCCC[P+](c2ccccc2)(c2ccccc2)c2ccccc2)c2ccccc2)c2ccccc2)cc1
IC50 (HeLa): 0.94 µM
IC50 (CWR22R): 620 nM
Kd [2]: 4410 nM
Kd [3]: 28 µM
IC50 [1]: 2.53 µM

CN(CCCCCC[P+](c1ccccc1)(c1ccccc1)c1ccccc1)C(=O)c1ccccc1C1=c2cc3c4c(c2Oc2c1cc1c5c2CCCN5CCC1)CCC[N+]=4CCC3
Kd [4]: 1520 nM

COc1c(C)c(CCCCCCCCCC[P+](c2ccccc2)(c2ccccc2)c2ccccc2)c(OC)c(OC)c1OC
IC50 (HeLa): 1.65 µM
IC50 (CWR22R): 385 nM
IC50 [1]: 3.77 µM

CC1(C)CC(C(=O)OCCCCCCCCCC[P+](c2ccccc2)(c2ccccc2)c2ccccc2)C(C)(C)N1O (stereo not given)
IC50 (HeLa): 5.15 µM
IC50 (CWR22R): 601 nM
IC50 [1]: 4.75 µM

CCN(CC)c1ccc2c(-c3ccccc3C(=O)N(C)CCCCCC[P+](c3ccccc3)(c3ccccc3)c3ccccc3)c3ccc(=[N+](CC)CC)cc-3oc2c1
Kd [4]: 810 nM

COC1=C(OC)C(=O)C(C[P+](c2ccccc2)(c2ccccc2)c2ccccc2)=C(C)C1=O
IC50 (HeLa): > 20 µM
IC50 (CWR22R): 16300 nM
IC50 [1]: > 20 µM

CCN(CC)c1ccc2c(-c3ccccc3C(=O)N(C)CCCCCCCC[P+](c3ccccc3)(c3ccccc3)c3ccccc3)c3ccc(=[N+](CC)CC)cc-3oc2c1
Kd [4]: 2190 nM

CC1(C)CC(C(=O)OCC[P+](c2ccccc2)(c2ccccc2)c2ccccc2)C(C)(C)N1O (stereo not given)
IC50 (HeLa): > 20 µM
IC50 (CWR22R): > 20000 nM
IC50 [1]: > 20 µM

COc1c(Br)c(C)c(CCCCCCCCCC[P+](c2ccccc2)(c2ccccc2)c2ccccc2)c(OC)c1OC
IC50 (HeLa): 1.61 µM
IC50 (CWR22R): 370 nM
IC50 [1]: 4.07 µM

O=C(CCCCCCCCCC[P+](c1ccccc1)(c1ccccc1)c1ccccc1)Nc1nccs1
IC50 (HeLa): 6.38 µM
IC50 (CWR22R): 2250 nM
IC50 [1]: 14.1 µM

CC(C)(C)[Si](C)(C)O[C@H]1CC[C@]2(C)[C@H]1[C@H]2CCC[P+](c1ccccc1)(c1ccccc1)c1ccccc1
IC50 (HeLa): 1.67 µM
IC50 (CWR22R): 860 nM
IC50 [1]: 8.05 µM

CN(CCCCCCCC[P+](c1ccccc1)(c1ccccc1)c1ccccc1)C(=O)c1ccccc1C1=c2cc3c4c(c2Oc2c1cc1c5c2CCCN5CCC1)CCC[N+]=4CCC3
Kd [2]: 370 nM
Kd [4]: 270 nM
Kd [3]: 5.21 µM

COC1=C(OC)C(=O)C(CCCCCCCCCC[P+](c2ccccc2)(c2ccccc2)c2ccccc2)=C(C)C1=O [MITOQUINONE CATION]
IC50 (HeLa): 4.3 µM
IC50 (CWR22R): 597 nM
Kd [5]: 6.6 µM
IC50 [1]: 5.2 µM

Reference: ChEMBL document CHEMBL6083281, “Development of a Fluorescence Probe for High-Throughput Screening of Allosteric Inhibitors Targeting TRAP1” (J Med Chem, 2024)
